Reference: patent US20230165867A1 (CHENGDU BAIYU PHARMACEUTICAL CO., LTD., priority 2020, published 2023)

target: T1, DNA-PK kinase (Homo sapiens, UniProt P78527); assay: Inhibition assay of DNA-PK kinase (Promega kit, ADP-Glo chemiluminescence); format: biochemical; details: 50 µM ATP, 37° C., 60 min; read-out: IC50 (nM), inhibitory activity on DNA-PK kinase
T1 construct: purchased Promega V4107
Protocol: The inhibitory activity of the compounds on DNA-PK kinase was measured by using a DNA-PK kinase assay kit (purchased from Promega, Cat.#: V4107, Lot: 0000366495). The results were quantified by chemiluminescence, and the detailed experimental protocol was as follows: • i. An ADP-fluorescence standard curve over a range of concentrations was plotted according to the kit instructions; • ii. […] The mixtures were mixed well, centrifuged (1000 rpm, 30 s), and incubated at 37° C. for 60 min; • iv. 5 µL of ADP-Glo™ Reagent was added to stop the reaction, which was then mixed well, centrifuged (1000 rpm, 30 s), and incubated at room temperature for 40 min; • v. 10 µL Kinase Detection Reagent was added, and the mixture was mixed well by shaking, centrifuged (1000 rpm, 30 s), and incubated at room temperature for 30 min; • vi. The […] was measured by using a microplate reader (Thermo fisher, Varioskan LUX).

| IC50 | Compound |
| --- | --- |
| 14.3 nM | Cc1cc(=O)n(C)cc1Nc1ncc2c(n1)n(C1CCOCC1)c(=O)n2C [Compound 56, 2-((1,4-Dimethyl-6-oxo-1,6-dihydropyridin-3-yl)amino)-7-methyl-9-(tetrahydro-2H-pyran-4-yl)-7,9-dihydro-8H-purin-8-one] |
| 14.8 nM | Cc1cc(=O)[nH]cc1Nc1ncc2c(n1)n(C1CCOCC1)c(=O)n2C [Compound 55, 7-Methyl-2-((4-methyl-6-oxo-1,6-dihydropyridin-3-yl)amino)-9-(tetrahydro-2H-pyran-4-yl)-7,9-dihydro-8H-purin-8-one] |
| 28.7 nM | Cc1cc(C#N)ncc1Nc1ncc2c(n1)n(C1CCOCC1)c(=O)n2C [Compound 17, 4-Methyl-5-((7-methyl-8-oxo-9-(tetrahydro-2H-pyran-4-yl)-8,9-dihydro-7H-purin-2-yl)amino)picolinonitrile] |
| 31 nM | Cc1cc(C(=O)NC2CC2)ccc1Nc1ncc2c(n1)n(C1CCOCC1)c(=O)n2C [Compound 31, N-Cyclopropyl-3-methyl-4-((7-methyl-8-oxo-9-(tetrahydro-2H-pyran-4-yl)-8,9-dihydro-7H-purin-2-yl)amino)benzamide] |
| 1.36 nM | COC(=O)c1cc(Nc2ncc3c(n2)n(C2CCOCC2)c(=O)n3C)c(C)s1 [Compound 22] |
| 53 nM | COc1ccc(Nc2ncc3c(n2)n(C2CCOCC2)c(=O)n3C)c(C)n1 [Compound 21] |
| 10.1 nM | Cc1cc(S(C)(=O)=O)ccc1Nc1ncc2c(n1)n(C1CCOCC1)c(=O)n2C [Compound 1, 7-Methyl-2-((2-methyl-4-(methylsulfonyl)phenyl)amino)-9-(tetrahydro-2H-pyran-4-yl)-7,9-dihydro-8H-purin-8-one] |
| 17.9 nM | CNC(=O)c1cc(C)c(Nc2ncc3c(n2)n(C2CCOCC2)c(=O)n3C)cc1F [Compound 36, 2-Fluoro-N,5-dimethyl-4-((7-methyl-8-oxo-9-(tetrahydro-2H-pyran-4-yl)-8,9-dihydro-7H-purin-2-yl)amino)benzamide] |
| 66.6 nM | Cc1cc(C(=O)NC(C)C)ccc1Nc1ncc2c(n1)n(C1CCOCC1)c(=O)n2C [Compound 30, N-Isopropyl-3-methyl-4-((7-methyl-8-oxo-9-(tetrahydro-2H-pyran-4-yl)-8,9-dihydro-7H-purin-2-yl)amino)benzamide] |
| 5.47 nM | Cc1cc(F)ccc1Nc1ncc2c(n1)n(C1CCOCC1)c(=O)n2C [Compound 7, 2-((4-fluoro-2-methylphenyl)amino)-7-methyl-9-(tetrahydro-2H-pyran-4-yl)-7,9-dihydro-8H-purin-8-one] |
| 39.2 nM | Cc1[nH]c(=O)ccc1Nc1ncc2c(n1)n(C1CCOCC1)c(=O)n2C [Compound 40] |
| 0.99 nM | Cc1cc(C(=O)O)c(C#N)cc1Nc1ncc2c(n1)n(C1CCOCC1)c(=O)n2C [Compound 46, 2-cyano-5-methyl-4-((7-methyl-8-oxo-9-(tetrahydro-2H-pyran-4-yl)-8,9-dihydro-7H-purin-2-yl)amino)benzoic acid] |

Continued, compound first:

| Compound | IC50 |
| --- | --- |
| Cc1cc(C(N)=O)c(F)cc1Nc1ncc2c(n1)n(C1CCOCC1)c(=O)n2CCF [Compound 109, 2-Fluoro-4-((7-(2-fluoroethyl)-8-oxo-9-(tetrahydro-2H-pyran-4-yl)-8,9-dihydro-7H-purin-2-yl)amino)-5-methylbenzamide] | 5.54 nM |
| [2H]C([2H])([2H])NC(=O)c1cc(C)c(Nc2ncc3c(n2)n(C2CCOCC2)c(=O)n3C)cc1F [Compound 37, 2-Fluoro-5-methyl-N-(methyl-d3)-4-((7-methyl-8-oxo-9-(tetrahydro-2H-pyran-4-yl)-8,9-dihydro-7H-purin-2-yl)amino)benzamide] | 11.9 nM |
| Cc1cc(C(N)=O)c(F)cc1Nc1ncc2c(n1)n(C1CC3(COC3)C1)c(=O)n2C [Compound 89, 2-Fluoro-5-methyl-4-((7-methyl-8-oxo-9-(2-oxaspiro[3.3]heptan-6-yl)-8,9-dihydro-7H-purin-2-yl)amino)benzamide] | 3.83 nM |
| Cc1cc(C(N)=O)c(F)cc1Nc1ncc2c(n1)n(C1C[C@H]3CC(O)C[C@H]3C1)c(=O)n2C (stereo partly drawn) [Compound 84, 2-Fluoro-4-((9-((3aR,6aS)-5-hydroxyoctahydropentalen-2-yl)-7-methyl-8-oxo-8,9-dihydro-7H-purin-2-yl)amino)-5-methylbenzamide] | 0.24 nM |
| Cc1cc(C#N)ccc1Nc1ncc2c(n1)n(C1CC3CC(O)CC3C1)c(=O)n2C (stereo not drawn) [Compound 98, 4-[(9-(5-hydroxy-octahydropentalen-2-yl)-7-methyl-8-oxo-8,9-dihydro-7H-purin-2-yl)amino]-3-methylbenzonitrile] | 4.01 nM |
| Cc1cc(C(N)=O)c(F)c(C)c1Nc1ncc2c(n1)n(C1CCOCC1)c(=O)n2C [Compound 60, 2-Fluoro-3,5-dimethyl-4-((7-methyl-8-oxo-9-(tetrahydro-2H-pyran-4-yl)-8,9-dihydro-7H-purin-2-yl)amino)benzamide] | 29.7 nM |
| CCn1c(=O)n([C@H]2CCOC2)c2nc(Nc3cc(F)c(C(N)=O)cc3C)ncc21 [Compound 107, (S)((7-Ethyl-8-oxo-9-(tetrahydrofuran-3-yl)-8,9-dihydro-7H-purin-2-yl)amino)-2-fluoro-5-methylbenzamide] | 10.1 nM |
| Cc1cc(C(N)=O)c(F)cc1Nc1ncc2c(n1)n([C@H]1C[C@@H](O)C1)c(=O)n2C [Compound 94, 2-Fluoro-4-((9-(cis-3-hydroxycyclobutyl)-7-methyl-8-oxo-8,9-dihydro-7H-purin-2-yl)amino)-5-methylbenzamide] | 7.2 nM |
| Cc1cc(C(N)=O)c(F)cc1Nc1ncc2c(n1)n(C1CCC(C)(C#N)CC1)c(=O)n2C (stereo not drawn) [Compound 92, 4-((9-(4-cyano-4-methylcyclohexyl)-7-methyl-8-oxo-8,9-dihydro-7H-purin-2-yl)amino)-2-fluoro-5-methylbenzamide] | 0.02 nM |
